Experimental data: patent US9439415B2, “Method for reducing damage by harmful organisms in corn cultivation” (priority 2012, dated 2016)

Experiments:
[1] = system: Diabrotica virgifera virgifera and Agriotes lineatus; assay: Field furrow application test, lodge rate of corn due to damage by Diabrotica virgifera virgifera and Agriotes lineatus (Examples 4-8, 10, 11); format: in vivo; conditions: 165 days after application, versus non-treatment section
Source text: A chemical fertilizer (N:P:K=15:15:15) is applied to the soil surface of a cultivated land at 300 kg/ha, and the cultivated land is then plowed.
7 days after fertilization, for suppressing generation of weeds, the soil surface of the whole cultivated land is spray-treated with a mixed liquid containing thiencarbazone-methyl and isoxaflutole, each of which being a herbicide, and cyprosulfamide which is a safener at 150 L/ha so that the application amounts of thiencarbazone-methyl, isoxaflutole and cyprosulfamide are 9.2 g/ha, 23 g/ha and 15 g/ha, respectively. […]
17 days after application of clothianidin and tefluthrin, the number of plants of corn germinated is investigated, with central two rows of four rows of seeded furrows as an investigation section, for the treatment section and the non-treatment section. 165 days after application of clothianidin and tefluthrin, the number of plants of corn lodged due to damage by Diabrotica virgifera virgifera and Agriotes lineatus in the furrows of the treatment section and the non-treatment section, for which the number of plants of corn germinated is investigated, is investigated, a lodge rate is calculated in accordance with the following equation, and then an average lodge rate for the four investigation sections is determined. […]

Agriotes spp. = assay: Field furrow spray test, mortality of corn plants from damage by Agriotes spp. (Example 9); format: in vivo; conditions: 50 g/ha, furrow spray 100 L/ha, 34 days after treatment, average of four sections, non-treatment section 16.35
Description: A land was ditched at intervals of 80 cm, a predetermined amount of a water-diluted liquid of an esfenvalerate emulsifiable concentrate (using 25 g/L of an EC preparation, trade name: Sumialpha 2.5 EC, manufactured by Philagro) or a water-diluted liquid of a lambda-cyhalothrin SC (using 100 g/L of a SC preparation, trade name: KAPATE ZEON, manufactured by SYNGENTA) was prepared so that the applied amount of an effective component was the amount described in Table 4, and the furrow was spray-treated with the liquid at a spray amount of 100 L/ha. Then, the furrow was seeded with corn (Zea Mays, variety name: Kubrik), and a soil on the side of the furrow was gathered together to close the furrow. A seeding density of corn was 87500 seeds/ha. They were defined as example sections 16 and 17.
For comparison, a non-treatment section, which was seeded with corn in the same manner as in the example sections except that a treatment with a chemical was not performed, was provided. […]
34 days after the treatment with a chemical, the number of plants of corn grown in each of the example sections 16 and 17 and the non-treatment section were investigated, a mortality of plants of corn died because of the damage by Agriotes spp. was calculated in accordance with the following equation, and then an average mortality of the four investigation sections was determined. […]

Compound	Lodge rate (%) ([1]; Example 11: water-diluted lambda-cyhalothrin SC in furrow, 100 g/ha)	Average mortality (%) (Agriotes spp.)	Lodge rate (%) ([1]; Example 10: water-diluted Sumialpha 2.5 EC in furrow, esfenvalerate 100 g/ha)
CC1(C)[C@H](C(=O)O[C@H](C#N)c2cccc(Oc3ccccc3)c2)[C@@H]1/C=C(\Cl)C(F)(F)F (racemic) [Lambda-cyhalothrin]	low lodge rate as compared to the non-treatment section	3.35	–
CC(C)[C@H](C(=O)O[C@H](C#N)c1cccc(Oc2ccccc2)c1)c1ccc(Cl)cc1 [Esfenvalerate]	–	4.85	low lodge rate as compared to the non-treatment section
